Laboratory results published in ChEMBL document CHEMBL3045705, “Thermal, kinetic, spectroscopic studies and anti-microbial, anti-tuberculosis, anti-oxidant properties of clioquinol and benzo-coumarin derivatives mixed complexes with copper ion” (2013).
In brackets after ≈: the same amount, converted by molar mass.

Assays:
Type in all cases: functional
Streptococcus pyogenes = test: Antibacterial activity against Streptococcus pyogenes ATCC 12384 after 16 to 18 hr by Kirby-Bauer disc diffusion method
Bacillus subtilis = test: Antibacterial activity against Bacillus subtilis ATCC 11774 after 16 to 18 hr by Kirby-Bauer disk diffusion method
Escherichia coli = test: Antibacterial activity against Escherichia coli ATCC 25922 after 16 to 18 hr by Kirby-Bauer disc diffusion method
Pseudomonas aeruginosa = test: Antibacterial activity against Pseudomonas aeruginosa ATCC 25619 after 16 to 18 hr by Kirby-Bauer disc diffusion method
[1] = test system: Mycobacterium tuberculosis; test: Growth inhibition of Mycobacterium tuberculosis H37Rv MTCC 200 at MIC after 28 days by micro dilution anti-microbial susceptibility test
[2] = test system: Mycobacterium tuberculosis; test: Antitubercular activity against Mycobacterium tuberculosis H37Rv MTCC 200 after 28 days by micro dilution anti-microbial susceptibility test; conditions: H37Rv MTCC 200, 672 h
Candida albicans = test: Antifungal activity against Candida albicans ATCC 66027 after 16 to 18 hr by Kirby-Bauer disk diffusion method
Aspergillus niger = test: Antifungal activity against Aspergillus niger ATCC 64958 after 16 to 18 hr by Kirby-Bauer disc diffusion method

CCn1cc(C(=O)O)c(=O)c2cc(F)c(N3CCNCC3)cc21 [NORFLOXACIN]
MIC (Streptococcus pyogenes): 10 µg/mL (≈ 31.3 µM)
MIC (Bacillus subtilis): 10 µg/mL (≈ 31.3 µM)
MIC (Escherichia coli): 10 µg/mL (≈ 31.3 µM)
MIC (Pseudomonas aeruginosa): 10 µg/mL (≈ 31.3 µM)

CN[C@@H]1[C@H](O[C@H]2[C@H](O[C@H]3[C@H](O)[C@@H](O)[C@H](N=C(N)N)[C@@H](O)[C@@H]3N=C(N)N)O[C@@H](C)[C@]2(O)C=O)O[C@@H](CO)[C@H](O)[C@H]1O [STREPTOMYCIN]
growth inhibition (GI) [1]: 98%
MIC [2]: 6.25 µg/mL (≈ 10.7 µM)

O=C(/C=C/c1ccc([N+](=O)[O-])cc1)c1cc2c(ccc3ccccc32)oc1=O
MIC (Streptococcus pyogenes): 100 µg/mL (≈ 269 µM)
MIC (Candida albicans): 200 µg/mL (≈ 539 µM)
MIC (Bacillus subtilis): 200 µg/mL (≈ 539 µM)
MIC (Escherichia coli): 100 µg/mL (≈ 269 µM)
MIC (Aspergillus niger): 200 µg/mL (≈ 539 µM)
growth inhibition (GI) [1]: 54%
MIC (Pseudomonas aeruginosa): 200 µg/mL (≈ 539 µM)
MIC [2]: 50 µg/mL (≈ 135 µM)

O=C(/C=C/c1ccc(O)cc1)c1cc2c(ccc3ccccc32)oc1=O
MIC (Streptococcus pyogenes): 400 µg/mL (≈ 1170 µM)
MIC (Candida albicans): 200 µg/mL (≈ 584 µM)
MIC (Bacillus subtilis): 400 µg/mL (≈ 1170 µM)
MIC (Escherichia coli): 200 µg/mL (≈ 584 µM)
MIC (Aspergillus niger): 400 µg/mL (≈ 1170 µM)
growth inhibition (GI) [1]: 46%
MIC (Pseudomonas aeruginosa): 200 µg/mL (≈ 584 µM)
MIC [2]: 50 µg/mL (≈ 146 µM)

NNC(=O)c1ccncc1 [ISONIAZID]
growth inhibition (GI) [1]: 99%
MIC [2]: 0.25 µg/mL (≈ 1.82 µM)

NYSTATIN
MIC (Candida albicans): 100 µg/mL
MIC (Aspergillus niger): 100 µg/mL

CC1(C)S[C@@H]2[C@H](NC(=O)[C@H](N)c3ccccc3)C(=O)N2[C@H]1C(=O)O [AMPICILLIN]
MIC (Streptococcus pyogenes): 100 µg/mL (≈ 286 µM)
MIC (Bacillus subtilis): 100 µg/mL (≈ 286 µM)
MIC (Escherichia coli): 100 µg/mL (≈ 286 µM)
MIC (Pseudomonas aeruginosa): 100 µg/mL (≈ 286 µM)

O=C(/C=C/c1ccc(Cl)cc1)c1cc2c(ccc3ccccc32)oc1=O
MIC (Streptococcus pyogenes): 100 µg/mL (≈ 277 µM)
MIC (Candida albicans): 200 µg/mL (≈ 554 µM)
MIC (Bacillus subtilis): 200 µg/mL (≈ 554 µM)
MIC (Escherichia coli): 100 µg/mL (≈ 277 µM)
MIC (Aspergillus niger): 200 µg/mL (≈ 554 µM)
growth inhibition (GI) [1]: 88%
MIC (Pseudomonas aeruginosa): 100 µg/mL (≈ 277 µM)
MIC [2]: 12.5 µg/mL (≈ 34.6 µM)

O=C(/C=C/c1ccccc1)c1cc2c(ccc3ccccc32)oc1=O
MIC (Streptococcus pyogenes): 400 µg/mL (≈ 1230 µM)
MIC (Candida albicans): 400 µg/mL (≈ 1230 µM)
MIC (Bacillus subtilis): > 600 µg/mL
MIC (Escherichia coli): 400 µg/mL (≈ 1230 µM)
MIC (Aspergillus niger): 200 µg/mL (≈ 613 µM)
growth inhibition (GI) [1]: 18%
MIC (Pseudomonas aeruginosa): 400 µg/mL (≈ 1230 µM)
MIC [2]: 100 µg/mL (≈ 306 µM)

OC(Cn1cncn1)(Cn1cncn1)c1ccc(F)cc1F [FLUCONAZOLE]
MIC (Candida albicans): 10 µg/mL (≈ 32.7 µM)
MIC (Aspergillus niger): 10 µg/mL (≈ 32.7 µM)

O=C(/C=C/c1cccc(O)c1)c1cc2c(ccc3ccccc32)oc1=O
MIC (Streptococcus pyogenes): 200 µg/mL (≈ 584 µM)
MIC (Candida albicans): 200 µg/mL (≈ 584 µM)
MIC (Bacillus subtilis): 600 µg/mL (≈ 1750 µM)
MIC (Escherichia coli): 400 µg/mL (≈ 1170 µM)
MIC (Aspergillus niger): 200 µg/mL (≈ 584 µM)
growth inhibition (GI) [1]: 23%
MIC (Pseudomonas aeruginosa): 200 µg/mL (≈ 584 µM)
MIC [2]: 100 µg/mL (≈ 292 µM)

CC[C@@H](CO)NCCN[C@@H](CC)CO [ETHAMBUTOL]
growth inhibition (GI) [1]: 99%
MIC [2]: 3.12 µg/mL (≈ 15.3 µM)

O=C(O)c1cn(C2CC2)c2cc(N3CCNCC3)c(F)cc2c1=O [CIPROFLOXACIN]
MIC (Streptococcus pyogenes): 20 µg/mL (≈ 60.4 µM)
MIC (Bacillus subtilis): 5 µg/mL (≈ 15.1 µM)
MIC (Escherichia coli): 20 µg/mL (≈ 60.4 µM)
MIC (Pseudomonas aeruginosa): 10 µg/mL (≈ 30.2 µM)

O=C(/C=C/c1ccccc1[N+](=O)[O-])c1cc2c(ccc3ccccc32)oc1=O
MIC (Streptococcus pyogenes): 200 µg/mL (≈ 539 µM)
MIC (Candida albicans): 400 µg/mL (≈ 1080 µM)
MIC (Bacillus subtilis): 400 µg/mL (≈ 1080 µM)
MIC (Escherichia coli): 200 µg/mL (≈ 539 µM)
MIC (Aspergillus niger): 200 µg/mL (≈ 539 µM)
growth inhibition (GI) [1]: 37%
MIC (Pseudomonas aeruginosa): 400 µg/mL (≈ 1080 µM)
MIC [2]: 50 µg/mL (≈ 135 µM)
